Tests used:
[1] = tested on: glioblastoma U87 MG tumors; assay: Invasion of glioblastoma tumor graft into chicken embryo chorioallantoic membrane (CAM) mesenchyme; assay type: in vivo; settings: control 90.9%
Protocol: Synergistic effect of VPA and DCA on glioblastoma tumor (GB) graft on chicken embryo chorioallantoic membrane (CAM). […] Invasion into the CAM mesenchyme was detected in 50% of cases with 10 mM NaDCA treatment of GB (A-b and B). […] The incidence of invasion into the CAM mesenchyme was 9.1% in the group treated with the combination of 4 mM VPA and 5 mM DCA (A-c and B).
A - morphological changes of the chorioallantoic membrane in the groups studied: a - tumor formed from glioblastoma U87 MG cells; GB injured the integrity of the chorionic epithelium (ChE) (indicated by arrows) and invaded the CAM mesenchyme; b - GB treated with 10 mM NaDCA; no invasion of the CAM mesenchyme was detected, ChE injury already started (location marked with an arrow); c - GB treated with a combination of 4 mM VPA and 5 mM DCA; GB formed on the CAM surface, ChE integrity damaged (location marked with an arrow), CAM thinned (scale - 200 µm). […] C - fluorescence biomicroscopy of angiogenesis on the 5th day after tumor transplantation on CAM: a - untreated GB tumors, b - GB-4 mM VPA-5 mM DCA group; VPA-DCA treated tumor fluorescence is weaker compared to the control group tumor; a and b-a short arrow indicates the blood vessels attracted by the tumor, long arrow indicates a tumor (scale - 1 mm).

[2] = aqueous solution; cited from earlier work

For Magnesium dichloroacetate [MgDCA], the Invasion rate ([1]; 5 mM MgDCA, n = 7) was 14.3%.
With O=C([O-])C(Cl)Cl.[Na+] [NaDCA, Sodium dichloroacetate] the “Invasion into the CAM mesenchyme (cases)” value ([1]; 10 mM NaDCA, n = 14) was 50%.
For CCCC(CCC)C(=O)O [valproic acid, 2-propyl-pentanoic acid], the “ionization equilibrium constant Kr” value [2] is given as 2.2·10^-5.

From EP3895702B1, “DERIVATIVE OF VALPROIC ACID AND DICHLOROACETATE USED FOR THE TREATMENT OF CANCER” (Lietuvos sveikatos mokslu universitetas, priority 2020, dated 2021)
